# Experimental data published in patent US20260325533A1, “CDK INHIBITOR COMPOUNDS” (ALEKSIA THERAPEUTICS, INC., priority 2023, published 2026).
# Like-named read-outs stand apart in the source and are kept apart here.
# Columns and labels:
# Assay type in all cases: biochemical
# CDK6/CCND1 = CDK6/CCND1 (Homo sapiens, UniProt Q00534); assay: CDK6 homogeneous time-resolved fluorescence (HTRF) kinase assay; conditions: CDK6/CCND
# Description: (§1) A CDK homogeneous time-resolved fluorescence (HTRF) assay was used to assess the potency of the compounds described herein.
# (§2) To an untreated 384-well microtiter plate (ProxiPlate) was added 100 nL 100×test compound in DMSO and 5 μL 2×CDK enzyme in assay buffer (50 mM HEPES, 1 mM EGTA, 10 mM MgCl2, 0.01% Tween 20, 2 mM DTT). The plate was centrifuged at 800 RPM for 1 min then incubated for 20 min at 23 °C. 2.5 μL per well of 4×ATP and 2.5 μL 4×ULight™-eIF4E-binding protein 1 (Thr37/46) Peptide substrate were added to all wells. After addition, the plates were centrifuged at 800 RPM for 1 min. The plates were incubated at 23 °C for 60 min. 5 μL per well 4×EDTA solution were added to each well to stop the reaction. 5 μL 4×LANCE Ultra Europium-anti-phospho-eIF4E-binding protein 1 (Thr37/46) antibody were added to each well and the plate was centrifuged for 1 min at 800 RPM. The plate was incubated for 60 min at 23 °C. Fluorescence was read at 340 nm excitation and 665 nm emission on an EnVision 2105 fluorescence reader. The final concentrations of reagents in the activity assay were 1 nM CDK6/CCND1, 1 mM ATP, 50 nM ULight™-eIF4E-binding protein 1 (Thr37/46) Peptide substrate, 1% DMSO, 10 mM EDTA, and 2 nM LANCE Ultra Europium-anti-phospho-eIF4E-binding protein 1 (Thr37/46).
# (§3) Dose-response titrations were conducted by using an 11-point, half-logarithmic serial dilution scheme typically starting at 10 μM. Signals were reported as fluorescence units at 665 nm or the ratio of fluorescence units at 665 nm/fluorescence units at 615 nm. Signals are referred to below as “Lance signals”.
# (§4) Using this assay, the IC50 values of example compounds were determined. Table 3 illustrates the IC50 for various Example compounds of Formula IA. Table 4 illustrates the IC50 for various other Example compounds of Formula I. ND=not determined.
# CDK1/CCNB1 = CDK1/CCNB1 (Homo sapiens, UniProt P06493); assay: CDK1 homogeneous time-resolved fluorescence (HTRF) kinase assay; conditions: CDK1/CCNB
# Procedure, shortened: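 HTRF assay with 0.5 nM CDK1/CCNB1, 1 mM ATP, 50 nM ULight-eIF4E-BP1 (Thr37/46) peptide; compound preincubated 20 min, reaction 60 min at 23 °C, EDTA stop, Eu-anti-phospho antibody detection. 11-point half-log titration from 10 μM, 1% DMSO; IC50 from 665 nm or 665/615 signal.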
# CDK2/CCNE1 = CDK2/CCNE1 (Homo sapiens, UniProt P24941); assay: CDK2 homogeneous time-resolved fluorescence (HTRF) kinase assay; conditions: CDK2/CCNE
# Procedure, shortened: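 TR-FRET read-out (665 nm, or 665/615 ratio) of Eu-antibody detection of phospho-4E-BP1 (Thr37/46) ULight peptide. Enzyme 3 nM, ATP 1 mM, peptide 50 nM, 1% DMSO; 60 min reaction at 23 °C after 20 min compound preincubation. IC50 from 11-point half-log titrations, top typically 10 μM.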
# CDK4/CCND3 = CDK4/CCND3 (Homo sapiens, UniProt P11802); assay: CDK4 homogeneous time-resolved fluorescence (HTRF) kinase assay; conditions: CDK4/CCND
# Description: as §1
# as §2, with “were 1.5” for “were 1”, “nM CDK4/CCND3,” for “nM CDK6/CCND1,”
# as §3, §4
# [1] = x = IC50 >250 nM, read-out: CDK6/CCND IC50 (>250 nM column)
# [2] = >250 nM marked x, read-out: CDK1/CCNB IC50 >250 nM
# [3] = >250 nM marked x, read-out: CDK2/CCNE IC50 >250 nM
# [4] = >250 nM marked x, read-out: CDK6/CCND IC50 >250 nM
# [5] = x = IC50 25-250 nM, read-out: CDK6/CCND IC50 (25-250 nM)
# CDK1/CCNB1, sequence (P06493 whole entry): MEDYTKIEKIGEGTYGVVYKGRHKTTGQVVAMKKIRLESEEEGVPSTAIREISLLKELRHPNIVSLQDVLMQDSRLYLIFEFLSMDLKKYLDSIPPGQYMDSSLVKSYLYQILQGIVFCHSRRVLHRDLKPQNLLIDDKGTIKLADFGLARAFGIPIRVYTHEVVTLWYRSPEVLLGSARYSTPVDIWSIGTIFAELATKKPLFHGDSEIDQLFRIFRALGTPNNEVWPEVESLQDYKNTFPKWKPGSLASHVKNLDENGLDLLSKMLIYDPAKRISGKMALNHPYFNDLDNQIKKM
# CDK1/CCNB1, sequence (P14635 whole entry partner): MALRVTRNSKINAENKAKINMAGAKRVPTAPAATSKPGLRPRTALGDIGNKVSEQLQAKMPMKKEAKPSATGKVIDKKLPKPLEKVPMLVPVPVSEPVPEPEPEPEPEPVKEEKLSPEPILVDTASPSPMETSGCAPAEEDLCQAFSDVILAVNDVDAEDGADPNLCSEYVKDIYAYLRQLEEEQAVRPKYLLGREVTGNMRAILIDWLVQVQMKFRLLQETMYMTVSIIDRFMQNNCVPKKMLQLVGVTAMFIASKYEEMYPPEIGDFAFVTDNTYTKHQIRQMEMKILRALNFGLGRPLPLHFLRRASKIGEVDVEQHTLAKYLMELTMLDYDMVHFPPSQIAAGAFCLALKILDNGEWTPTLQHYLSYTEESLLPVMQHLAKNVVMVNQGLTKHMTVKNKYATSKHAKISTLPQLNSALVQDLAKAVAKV
# CDK6/CCND1, sequence (Q00534 whole entry): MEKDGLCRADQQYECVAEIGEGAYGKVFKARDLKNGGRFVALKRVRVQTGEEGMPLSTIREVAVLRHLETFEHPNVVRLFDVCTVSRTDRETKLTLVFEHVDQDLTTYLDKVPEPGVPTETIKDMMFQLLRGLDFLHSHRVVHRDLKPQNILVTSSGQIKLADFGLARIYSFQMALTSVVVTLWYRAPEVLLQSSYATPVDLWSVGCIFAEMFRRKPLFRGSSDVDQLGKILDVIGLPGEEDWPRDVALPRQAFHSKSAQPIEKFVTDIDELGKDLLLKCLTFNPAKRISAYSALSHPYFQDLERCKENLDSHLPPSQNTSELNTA
# CDK6/CCND1, sequence (P24385 whole entry partner): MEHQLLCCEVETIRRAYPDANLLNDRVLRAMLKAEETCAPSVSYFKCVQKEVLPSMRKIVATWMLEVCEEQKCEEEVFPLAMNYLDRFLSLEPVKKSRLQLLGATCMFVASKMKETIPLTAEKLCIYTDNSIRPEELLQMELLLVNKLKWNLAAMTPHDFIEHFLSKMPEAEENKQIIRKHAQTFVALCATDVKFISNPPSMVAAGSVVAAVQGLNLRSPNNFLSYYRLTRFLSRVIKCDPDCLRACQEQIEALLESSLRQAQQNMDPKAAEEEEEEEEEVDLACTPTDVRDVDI
# CDK4/CCND3, sequence (P11802 whole entry): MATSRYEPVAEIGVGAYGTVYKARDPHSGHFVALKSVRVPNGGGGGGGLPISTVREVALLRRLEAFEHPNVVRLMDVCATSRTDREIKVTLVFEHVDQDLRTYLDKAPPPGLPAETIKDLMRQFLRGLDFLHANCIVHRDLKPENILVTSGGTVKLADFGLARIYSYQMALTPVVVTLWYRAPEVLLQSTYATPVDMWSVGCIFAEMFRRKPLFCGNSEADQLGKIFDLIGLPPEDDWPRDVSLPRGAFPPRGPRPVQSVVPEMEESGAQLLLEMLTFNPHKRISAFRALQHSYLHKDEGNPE
# CDK4/CCND3, sequence (P30281 whole entry partner): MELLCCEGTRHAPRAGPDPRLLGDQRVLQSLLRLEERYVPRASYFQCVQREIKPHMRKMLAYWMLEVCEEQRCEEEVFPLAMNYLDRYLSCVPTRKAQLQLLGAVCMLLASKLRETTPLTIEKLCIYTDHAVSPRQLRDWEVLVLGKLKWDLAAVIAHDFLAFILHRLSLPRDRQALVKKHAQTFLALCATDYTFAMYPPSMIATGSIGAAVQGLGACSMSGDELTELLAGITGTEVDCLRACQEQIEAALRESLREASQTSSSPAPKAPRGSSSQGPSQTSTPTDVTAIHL
smiles,measurement,setting,value
"Cc1c(-c2nccc3cnc(Nc4ccc(S(=O)(=O)Nc5cc(F)cc(C(C)(C)O)c5)cc4)cc23)ccc2c1cnn2CC(C)(C)O [Ex 801, N-(3-fluoro-5-(2-hydroxypropan-2-yl)phenyl)-4-((5-(1-(2-hydroxy-2-methylpropyl)-4-methyl-1H-indazol-5-yl)-2,6-naphthyridin-3-yl)amino)benzenesulfonamide]",IC50,"CDK6/CCND1; >250 nM, 1 mM ATP, read-out: CDK6/CCND IC50, >250 nM",> 0.25 µM
same,IC50,"CDK1/CCNB1; >250 nM, read-out: CDK1/CCNB IC50 >250 nM",> 0.25 µM
same,IC50,"CDK2/CCNE1; <25 nM, read-out: CDK2/CCNE IC50, <25 nM",< 0.025 µM
"Cc1cc(S(C)(=N)=O)ccc1Nc1cc2c(C#Cc3ccc4c(c3)NC(=O)C43CCC3)nccc2cn1 (single isomer, unassigned) [Ex 333, 6'-((7-((2-methyl-4-(S-methylsulfonimidoyl)phenyl)amino)-2,6-naphthyridin-1-yl)ethynyl)spiro[cyclobutane-1,3'-indolin]-2'-one]",IC50,"CDK1/CCNB1; 25-250 nM marked x, read-out: CDK1/CCNB IC50 25-250 nM",0.025 to 0.25 µM
same,IC50,"CDK4/CCND3; 25-250 nM marked x, read-out: CDK4/CCND IC50 25-250 nM",0.025 to 0.25 µM
"Cc1c(-c2nccc3cnc(Nc4ccc(S(C)(=N)=O)cc4)cc23)ccc2nn(C)cc12 (single isomer, unassigned) [Example 546, (4-((5-(2,4-dimethyl-2H-indazol-5-yl)-2,6-naphthyridin-3-yl)amino)phenyl)(imino)(methyl)-λ^6-sulfanone]",IC50,CDK6/CCND1; [1],> 0.25 µM
"CC(C)S(=N)(=O)c1ccc(Nc2cc3c(C#Cc4ccc5c(c4)NC(=O)C5(C)C)nccc3cn2)cc1 (single isomer, unassigned) [Ex 456, 3,3-dimethyl-6-((7-((4-(propan-2-ylsulfonimidoyl)phenyl)amino)-2,6-naphthyridin-1-yl)ethynyl)indolin-2-one]",IC50,CDK6/CCND1; [1],> 0.25 µM
"CC1(CO)C(=O)Nc2cc(C#Cc3nccc4cnc(Nc5ccc(S(C)(=O)=O)cc5)cc34)ccc21 (single isomer, unassigned) [Example 373, 3-(hydroxymethyl)-3-methyl-6-((7-((4-(methylsulfonyl)phenyl)amino)-2,6-naphthyridin-1-yl)ethynyl)indolin-2-one]",IC50,CDK6/CCND1; [1],> 0.25 µM
"CS(=O)(=O)N1CCC(Nc2cc3c(C(=O)N4CCCC(O)C4)nccc3cn2)CC1 (racemic) [Ex 95, (3-hydroxypiperidin-1-yl)(7-((1-(methylsulfonyl)piperidin-4-yl)amino)-2,6-naphthyridin-1-yl)methanone]",IC50,"CDK6/CCND1; <25 nM, read-out: CDK6/CCND IC50 <25 nM",< 0.025 µM
same,IC50,CDK1/CCNB1; [2],> 0.25 µM
same,IC50,CDK2/CCNE1; [3],> 0.25 µM
"CC(C)S(=N)(=O)c1ccc(Nc2cc3c(C#Cc4ccc5c(c4)NC(=O)C5(C)O)nccc3cn2)cc1 (single isomer, unassigned) [Ex 292, 3-hydroxy-3-methyl-6-((7-((4-(propan-2-ylsulfonimidoyl)phenyl)amino)-2,6-naphthyridin-1-yl)ethynyl)indolin-2-one]",IC50,CDK6/CCND1; [4],> 0.25 µM
"CC1(C)C(=O)Nc2cc(C#Cc3nccc4cnc(Nc5ccc(S(C)(=N)=O)cc5)cc34)ccc21 (single isomer, unassigned) [Ex 452, 3,3-dimethyl-6-((7-((4-(S-methylsulfonimidoyl)phenyl)amino)-2,6-naphthyridin-1-yl)ethynyl)indolin-2-one]",IC50,CDK6/CCND1; [5],0.025 to 0.25 µM
"CCC1(CC)C(=O)Nc2cc(C#Cc3nccc4cnc(Nc5ccc(S(=N)(=O)C6CCC6)cc5)cc34)ccc21 (single isomer, unassigned) [Example 413, 6-((7-((4-(cyclobutanesulfonimidoyl)phenyl)amino)-2,6-naphthyridin-1-yl)ethynyl)-3,3-diethylindolin-2-one]",IC50,"CDK4/CCND3; x = IC50 >250 nM, read-out: CDK4/CCND IC50 (>250 nM column)",> 0.25 µM
"N=S(=O)(c1ccc(Nc2cc3c(C#Cc4ccc5c(c4)NC(=O)C54CC4)nccc3cn2)cc1)C1CCC1 (single isomer, unassigned) [Ex 353, 6'-((7-((4-(cyclobutanesulfonimidoyl)phenyl)amino)-2,6-naphthyridin-1-yl)ethynyl)spiro[cyclopropane-1,3'-indolin]-2'-one]",IC50,"CDK4/CCND3; x = IC50 25-250 nM, read-out: CDK4/CCND IC50 (25-250 nM)",0.025 to 0.25 µM
"CC(C)S(=N)(=O)c1ccc(Nc2cc3c(C#Cc4ccc5c(c4)NC(=O)C5(C)CCO)nccc3cn2)cc1 (single isomer, unassigned) [Ex 287, 3-(2-hydroxyethyl)-3-methyl-6-((7-((4-(propan-2-ylsulfonimidoyl)phenyl)amino)-2,6-naphthyridin-1-yl)ethynyl)indolin-2-one]",IC50,CDK6/CCND1; [4],> 0.25 µM
"N=S(=O)(c1ccc(Nc2cc3c(C#Cc4ccc5c(c4)NC(=O)C54CCC4)nccc3cn2)cc1)C1CC1 (single isomer, unassigned) [Ex 365, 6'-((7-((4-(cyclopropanesulfonimidoyl)phenyl)amino)-2,6-naphthyridin-1-yl)ethynyl)spiro[cyclobutane-1,3'-indolin]-2'-one]",IC50,CDK6/CCND1; [5],0.025 to 0.25 µM
"CS(=N)(=O)c1ccc(Nc2cc3c(C#Cc4ccc5c(c4)NC(=O)C54CC4)nccc3cn2)cc1 (single isomer, unassigned) [Ex 359, 6'-((7-((4-(S-methylsulfonimidoyl)phenyl)amino)-2,6-naphthyridin-1-yl)ethynyl)spiro[cyclopropane-1,3'-indolin]-2'-one]",IC50,CDK6/CCND1; [5],0.025 to 0.25 µM
"CCS(=N)(=O)c1ccc(Nc2cc3c(C#Cc4ccc5c(c4)NC(=O)C54CCC4)nccc3cn2)cc1 (single isomer, unassigned) [Ex 367, 6'-((7-((4-(ethylsulfonimidoyl)phenyl)amino)-2,6-naphthyridin-1-yl)ethynyl)spiro[cyclobutane-1,3'-indolin]-2'-one]",IC50,CDK6/CCND1; [1],> 0.25 µM
"CC1(C)C(=O)Nc2cc(C#Cc3nccc4cnc(Nc5ccc(S(=N)(=O)C6CCC6)cc5)cc34)ccc21 (single isomer, unassigned) [Ex 453, 6-((7-((4-(cyclobutanesulfonimidoyl)phenyl)amino)-2,6-naphthyridin-1-yl)ethynyl)-3,3-dimethylindolin-2-one]",IC50,CDK6/CCND1; [5],0.025 to 0.25 µM
same,IC50,"CDK1/CCNB1; x = IC50 <25 nM, read-out: CDK1/CCNB IC50 (<25 nM)",< 0.025 µM
same,IC50,"CDK2/CCNE1; x = IC50 <25 nM, read-out: CDK2/CCNE IC50 (<25 nM)",< 0.025 µM
"N#CC1CCN(c2nccc3cnc(Nc4ccc(C(=O)NC5CCSC5=O)cc4)cc23)CC1 (stereo not drawn) [Example 16, 4-((5-(4-cyanopiperidin-1-yl)-2,6-naphthyridin-3-yl)amino)-N-(2-oxotetrahydrothiophen-3-yl)benzamide]",IC50,CDK1/CCNB1; [2],> 0.25 µM
same,IC50,CDK2/CCNE1; [3],> 0.25 µM
